Results as given in the supplement of paper PMC10307832.

What was measured:
Assay in all cases: relative viability (nuclei count vs DMSO), 5 days (fraction); higher = more cells survive
[1] = compound: CCn1c(-c2nonc2N)nc2c(C#CC(C)(C)O)ncc(OC[C@H]3CCCNC3)c21 + Cc1nc(NC(=O)N2CCC[C@H]2C(N)=O)sc1-c1ccnc(C(C)(C)C(F)(F)F)c1 [Alpelisib] (partner 2 µM)
Summary of the method: (§1)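 Lung cancer cell lines in 1536-well plates were dosed by pin tool the day after seeding, either with one drug alone or with a fixed anchor-drug dose plus five library-drug doses (not always all listed) in √10 steps. After 5 days, cells were fixed and their nuclei stained in one step (final 0.05% Triton X-100, 1% formaldehyde, 1 ug/ml Hoechst), then counted on 4× images. Relative viability is the nuclei count in treated wells divided by that in vehicle wells. Values are medians of duplicate plates.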

[2] = compound: CCn1c(-c2nonc2N)nc2c(C#CC(C)(C)O)ncc(OC[C@H]3CCCNC3)c21 + CC(=O)c1c(C)c2cnc(Nc3ccc(N4CCNCC4)cn3)nc2n(C2CCCC2)c1=O [Palbociclib] (partner 0.5 µM)
Summary of the method: as §1

[3] = compound: CCn1c(-c2nonc2N)nc2c(C#CC(C)(C)O)ncc(OC[C@H]3CCCNC3)c21 + N=C(N)NC(=N)NCCc1ccccc1 [Phenformin] (partner 250 µM)
Summary of the method: as §1

[4] = compound: CCn1c(-c2nonc2N)nc2c(C#CC(C)(C)O)ncc(OC[C@H]3CCCNC3)c21 + Cc1cc(Nc2cc(N3CCN(C)CC3)nc(Sc3ccc(NC(=O)C4CC4)cc3)n2)n[nH]1 [Tozasertib] (partner 0.1 µM)
Summary of the method: as §1

Cell Line | relative viability ([1]; first compound 0.01 µM) | relative viability ([1]; first compound 0.03162 µM) | relative viability ([1]; first compound 0.1 µM) | relative viability ([1]; first compound 0.3162 µM) | relative viability ([1]; first compound 1 µM) | relative viability ([2]; first compound 0.01 µM) | relative viability ([2]; first compound 0.03162 µM) | relative viability ([2]; first compound 0.1 µM) | relative viability ([2]; first compound 0.3162 µM) | relative viability ([2]; first compound 1 µM) | relative viability ([3]; first compound 0.01 µM) | relative viability ([3]; first compound 0.03162 µM) | relative viability ([3]; first compound 0.1 µM) | relative viability ([3]; first compound 0.3162 µM) | relative viability ([3]; first compound 1 µM) | relative viability ([4]; first compound 0.01 µM) | relative viability ([4]; first compound 0.03162 µM) | relative viability ([4]; first compound 0.1 µM) | relative viability ([4]; first compound 0.3162 µM) | relative viability ([4]; first compound 1 µM)
NCI-H23 | 0.605 | 0.717 | 0.686 | 0.528 | 0.588 | 0.44 | 0.481 | 0.52 | 0.575 | 0.55 | 0.729 | 0.783 | 0.817 | 0.8 | 0.781 | 0.398 | 0.438 | 0.568 | 0.384 | 0.432
NCI-H322M | 0.868 | 0.765 | 0.121 | 0.853 | 0.813 | 0.456 | 0.48 | 0.487 | 0.463 | 0.475 | 0.717 | 0.727 | 0.677 | 0.7 | 0.744 | 0.465 | 0.419 | 0.423 | 0.42 | 0.448
NCI-H358 | 0.896 | 0.784 | 0.787 | 0.687 | 0.701 | 0.139 | 0.147 | 0.122 | 0.151 | 0.131 | 0.39 | 0.321 | 0.338 | 0.315 | 0.32 | 0.0952 | 0.0863 | 0.103 | 0.1 | 0.097
NCI-H441 | 0.653 | 0.891 | 0.749 | 0.683 | 0.717 | 0.225 | 0.206 | 0.227 | 0.193 | 0.207 | 0.824 | 0.888 | 0.833 | 0.801 | 0.715 | 0.699 | 0.53 | 0.538 | 0.57 | 0.56
NCI-H460 | 0.439 | 0.496 | 0.477 | 0.447 | 0.437 | 0.146 | 0.0929 | 0.18 | 0.127 | 0.139 | 0.518 | 0.561 | 0.523 | 0.495 | 0.541 | 0.533 | 0.542 | 0.447 | 0.461 | 0.532
NCI-H520 | 1.01 | 0.883 | 0.605 | 0.851 | 0.547 | 0.185 | 0.2 | 0.164 | 0.153 | 0.165 | 0.424 | 0.561 | 0.303 | 0.236 | 0.233 | 0.41 | 0.482 | 0.323 | 0.358 | 0.335
NCI-H647 | 1.2 | 1.17 | 1.02 | 1.03 | 1.23 | 0.349 | 0.401 | 0.416 | 0.309 | 0.337 | 0.595 | 0.573 | 0.554 | 0.399 | 0.345 | 0.26 | 0.326 | 0.255 | 0.312 | 0.396
NCI-H650 | 1.1 | 1.21 | 1.02 | 1.04 | 1.24 | 0.318 | 0.33 | 0.304 | 0.368 | 0.325 | 0.435 | 0.414 | 0.429 | 0.415 | 0.444 | 0.724 | 0.746 | 0.73 | 0.723 | 0.694
NCI-H661 | 0.562 | 0.553 | 0.603 | 0.635 | 0.576 | 0.446 | 0.399 | 0.39 | 0.389 | 0.372 | 0.277 | 0.259 | 0.265 | 0.145 | 0.239 | 0.362 | 0.343 | 0.354 | 0.364 | 0.382
NCI-H727 | 0.576 | 0.527 | 0.714 | 0.608 | 0.479 | 0.667 | 0.695 | 0.52 | 0.647 | 0.734 | 0.468 | 0.461 | 0.618 | 0.515 | 0.502 | 0.605 | 0.662 | 0.643 | 0.693 | 0.575
NCI-H838 | 1.05 | 1.02 | 1.03 | 0.979 | 0.989 | 0.19 | 0.221 | 0.199 | 0.172 | 0.227 | 0.564 | 0.557 | 0.685 | 0.521 | 0.583 | 0.276 | 0.295 | 0.29 | 0.248 | 0.253
NCI-H1355 | 0.863 | 0.732 | 0.786 | 0.825 | 0.82 | 0.408 | 0.367 | 0.406 | 0.382 | 0.382 | 0.488 | 0.458 | 0.417 | 0.434 | 0.483 | 0.572 | 0.629 | 0.549 | 0.611 | 0.612
NCI-H1395 | 0.986 | 1.35 | 1.01 | 0.79 | 0.76 | 0.605 | 0.527 | 0.604 | 0.495 | 0.509 | 0.417 | 0.416 | 0.418 | 0.376 | 0.388 | 0.776 | 0.763 | 0.736 | 0.651 | 0.659
NCI-H1437 | 0.895 | 0.964 | 0.965 | 0.778 | 0.902 | 0.295 | 0.297 | 0.338 | 0.281 | 0.359 | 0.331 | 0.34 | 0.293 | 0.239 | 0.306 | 0.38 | 0.461 | 0.422 | 0.39 | 0.432
NCI-H1651 | 1.01 | 0.879 | 0.937 | 0.917 | 1.19 | 0.518 | 0.528 | 0.505 | 0.49 | 0.56 | 0.353 | 0.387 | 0.382 | 0.28 | 0.337 | 0.633 | 0.624 | 0.794 | 0.762 | 0.805
NCI-H1666 | 0.874 | 1.1 | 0.992 | 0.792 | 0.831 | 0.615 | 0.647 | 0.645 | 0.626 | 0.636 | 0.614 | 0.539 | 0.539 | 0.987 | 0.534 | 0.625 | 0.691 | 0.644 | 0.578 | 0.567
